Reference: the RepoRT retention time repository (doi:10.1021/acs.analchem.2c02893)

Assay: RP, Thermo Scientific Acclaim RSLC 120 C18, 100 × 2.1 mm, 2.2 µm, 30 °C, 0.2 mL/min, estimated dead time 1.1 min; A: 90% water + 10% methanol + 0.01% formic acid + 5 mM ammonium formate, pH 3.61; B: methanol + 0.01% formic acid + 5 mM ammonium formate, pH 3.61; gradient (min/%B) 0/1 1/1 2/39 13/99.9 15/99.9 15.1/1 20.1/1
Details: stereoisomer not certain

First: CCOc1nc2cccc(C(=O)O)c2n1Cc1ccc(-c2ccccc2-c2nn[nH]n2)cc1 [Candesartan]
Second: CCCc1ccc(C(=O)c2cn(CCC)c3ccccc23)c2ccccc12 [JWH-180]
The LC retention time of the first is 1.6-fold lower: 7.93 min for the first, 12.7 min for the second.

`CN1C2CCC1CC(OC(=O)C(CO)c1ccccc1)C2` (configuration not stated) [Atropine] and `CN1C2CCCC1CC(NC(=O)c1nn(C)c3ccccc13)C2` (configuration not stated) [Granisetron] are within 1.5-fold of each other in LC retention time: 4.36 min for the first, 4.99 min for the second.

Compared with `CC12CCC(=O)C=C1C=CC1C2CCC2(C)C1CCC21CCC(=O)O1` (configuration not stated) [Canrenone], `COc1ccc2c3c1OC1CC(O)C=CC31CCN(C)C2` (configuration not stated) [Galantamine] is 3.3-fold lower in LC retention time: 9.77 min for the first, 2.99 min for the second.

Compared with `Cc1ccc(N(CC2=NCCN2)c2cccc(O)c2)cc1` [Phentolamine], `Cc1ccc(N=Nc2c(O)ccc3ccccc23)c(C)c1` [Sudan II] is 2.5-fold higher in LC retention time: 5.86 min for the first, 14.9 min for the second.

Compared with `CC(C)OC(=O)Nc1ccccc1` [Propham], `CC(C(=O)c1ccccc1)N(C)C` (configuration not stated) [Cathinone-Dimethyl] is 2.2-fold lower in LC retention time: 8.11 min for the first, 3.64 min for the second.

`CCOP(=S)(Oc1cnc(C(C)(C)C)nc1)OC(C)C` (configuration not stated) [Tebupirimphos] and `COP(=S)(OC)Oc1ccc(C#N)cc1` [Cyanophos] are within 1.5-fold of each other in LC retention time: 12.3 min for the first, 8.27 min for the second.

Going from `NC(=O)c1c(Cl)cccc1Cl` [Dichlorobenzamide] to `CN(C)C(=O)Nc1ccc(Cl)c(Cl)c1` [Diuron], the LC retention time rises from 4.48 min to 8.64 min (1.9-fold).

First: NC(=O)c1ncn(C2OC(CO)C(O)C2O)n1 (configuration not stated) [Ribavirin]
Second: NC(N)=NC(=O)c1nc(Cl)c(N)nc1N [Amiloride]
The LC retention time of the first is 2.7-fold lower: 1.36 min for the first, 3.68 min for the second.

Compared with `CCCOc1ccc(S(=O)(=O)NCCC2CCCN2C)cc1-c1nc2c(CCC)nn(C)c2c(=O)[nH]1` (configuration not stated) [Udenafil], `CCCCCCCCCCOc1cc2c(=O)c(C(=O)OCC)c[nH]c2cc1OCC` [Decoquinate] is 1.7-fold higher in LC retention time: 7.83 min for the first, 13.4 min for the second.

Going from `CC(=O)Nc1ccc(O)c(C(=O)O)c1` [N-Acetyl mesalazine] to `COc1ccc2[nH]cc(CCNC(C)=O)c2c1` [Melatonin], the LC retention time rises from 3.43 min to 5.36 min (1.6-fold).

First: CC(C)(C)NCC(O)COc1ccccc1C#N (configuration not stated) [Bunitrolol]
Second: CC(CC(c1ccccc1)c1ccccc1)NC(C)(C)C (configuration not stated) [Terodiline]
The LC retention time of the first is 1.7-fold lower: 4.66 min for the first, 7.91 min for the second.

`CN(C)CCC(c1ccc(Br)cc1)c1ccccn1` (configuration not stated) [Brompheniramine] and `CN(C)CCOC(c1ccc(Cl)cc1)c1ccccn1` (configuration not stated) [Carbinoxamine] are within 1.5-fold of each other in LC retention time: 6.56 min for the first, 6.08 min for the second.

`CCCOCC(=Nc1ccc(Cl)cc1C(F)(F)F)n1ccnc1` [Triflumizole] and `CN1C(=O)C(O)N=C(c2ccccc2)c2cc(Cl)ccc21` (configuration not stated) [Temazepam] are within 1.5-fold of each other in LC retention time: 11.8 min for the first, 7.94 min for the second.

`NC(=O)c1ccc(N)cc1` [4-Aminobenzamide] and `NCC(O)COc1ccc(CC(N)=O)cc1` (configuration not stated) [Atenolol-desisopropyl] are within 1.5-fold of each other in LC retention time: 2.37 min for the first, 2 min for the second.

`CN(C)CCN(Cc1ccccc1)c1ccccn1` [Pyribenzamine (Tripelenamine. Azaron)] and `CN(C)C(=O)C(c1ccccc1)c1ccccc1` [Diphenamide] are within 1.5-fold of each other in LC retention time: 5.86 min for the first, 8.57 min for the second.

Compared with `NCC(CC(=O)O)c1ccc(Cl)cc1` (configuration not stated) [Baclofen], `CC(C)N=C(N)N=C(N)Nc1ccc(Cl)cc1` [Proguanil] is 1.6-fold higher in LC retention time: 4.27 min for the first, 6.98 min for the second.

Compared with `CCCNC(C)C(=O)Nc1c(C)csc1C(=O)OC` (configuration not stated) [Carticaine (Articaine)], `COC(=O)C1=C(C)NC(C)=C(C(=O)OCC(C)C)C1c1ccccc1[N+](=O)[O-]` (configuration not stated) [Nisoldipine] is 2.3-fold higher in LC retention time: 4.69 min for the first, 10.6 min for the second.

Going from `O=c1[nH]c2ccccc2n1CCCN1CCC(n2c(=O)[nH]c3cc(Cl)ccc32)CC1` [Domperidone] to `CN1CCN(CCCN2c3ccccc3Sc3ccc(Cl)cc32)CC1` [Prochlorperazine], the LC retention time rises from 6.27 min to 9.89 min (1.6-fold).

`CCSCCSP(=S)(OC)OC` [Thiometon] and `CCOP(=S)(OCC)SCCS(=O)(=O)CC` [Disulfoton-sulfone] are within 1.5-fold of each other in LC retention time: 10.2 min for the first, 8.02 min for the second.

`CCC(CC)(CNC(=O)CCCO)c1cccc(OC)c1` [Embutramide] and `CC[N+](CC)(CC(=O)Nc1c(C)cccc1C)Cc1ccccc1` [Denatonium] are within 1.5-fold of each other in LC retention time: 8.98 min for the first, 12.3 min for the second.

`CCOP(=S)(OCC)SCSc1ccc(Cl)cc1` [Carbophenothion] and `CCOP(=S)(OCC)SC1OCCOC1SP(=S)(OCC)OCC` (configuration not stated) [Dioxathion] are within 1.5-fold of each other in LC retention time: 12.9 min for the first, 12.1 min for the second.

`CCOC(=O)C(O)(c1ccc(Cl)cc1)c1ccc(Cl)cc1` [Chlorobenzilate] and `OC(c1ccc(Cl)cc1)(c1cncnc1)c1ccccc1Cl` (configuration not stated) [Fenarimol] are within 1.5-fold of each other in LC retention time: 11.7 min for the first, 10.1 min for the second.

Compared with `CSc1nc(N)nc(NC(C)(C)C)n1` [Irgarol-descyclopropyl], `CC(C)Nc1nc(N)[nH]c(=O)n1` [Atrazine-desethyl-2-hydroxy (=Prometon-Hydroxy-Desisopropyl)] is 2.7-fold lower in LC retention time: 8.43 min for the first, 3.16 min for the second.

`CN=CNc1ccc(C)cc1C` [N'-(2 4-Dimethylphenyl)-N-methylformamidine] and `Cc1cc(=O)n(-c2ccccc2)n1C` [Phenazone] are within 1.5-fold of each other in LC retention time: 4.44 min for the first, 4.63 min for the second.

`NC(=O)N1c2ccccc2C=Cc2cc(O)ccc21` [2-Hydroxycarbamazepine] and `CN1C(=O)C(O)N=C(c2ccccc2Cl)c2cc(Cl)ccc21` (configuration not stated) [Lormetazepam] are within 1.5-fold of each other in LC retention time: 6.03 min for the first, 8.61 min for the second.

`CN1CCCCC1Cn1cc(C(=O)c2ccccc2I)c2ccccc21` (configuration not stated) [AM-2233] and `O=C(c1cccc2ccccc12)c1cn(CCN2CCOCC2)c2ccccc12` [JWH-200] are within 1.5-fold of each other in LC retention time: 7.11 min for the first, 9.88 min for the second.

`COC(=O)C(NC(=O)c1cn(CCCCCF)c2ccccc12)C(C)C` (configuration not stated) [MMB-2201] and `O=C(Nc1cccc2ccccc12)c1nn(CCCCCF)c2ccccc12` [5-fluoro MN-18] are within 1.5-fold of each other in LC retention time: 10 min for the first, 11.8 min for the second.

`CCc1cc2cc(OC)c(OC)cc2c(Cc2ccccc2)n1` [Moxaverine] and `COc1ccc(CCN(C)CCCC(C#N)(c2cc(OC)c(OC)c(OC)c2)C(C)C)cc1OC` (configuration not stated) [Gallopamil] are within 1.5-fold of each other in LC retention time: 8.29 min for the first, 7.19 min for the second.

`CC(COc1ccc(Oc2ccccc2)cc1)Oc1ccccn1` (configuration not stated) [Pyriproxyfen] and `Oc1ccc2ccccc2c1N=Nc1ccccc1` [Sudan I] are within 1.5-fold of each other in LC retention time: 12.6 min for the first, 13.6 min for the second.

`COc1cc(N)c(Cl)cc1C(=O)NC1CCN(CCCOc2ccc(F)cc2)CC1OC` (configuration not stated) [Cisapride] and `C[N+](C)([O-])CCCC1(c2ccc(F)cc2)OCc2cc(C#N)ccc21` (configuration not stated) [Citalopram N-oxide] are within 1.5-fold of each other in LC retention time: 6.73 min for the first, 7.1 min for the second.

`Cc1ncc([N+](=O)[O-])n1C` [Dimetridazole] and `CNC(=C[N+](=O)[O-])NCCSCc1csc(CN(C)C)n1` [Nizatidine] are within 1.5-fold of each other in LC retention time: 4.27 min for the first, 2.96 min for the second.

`O=C1C(Cl)C(CCl)CN1c1cccc(C(F)(F)F)c1` (configuration not stated) [Flurochloridone] and `NCCC(Oc1ccc(C(F)(F)F)cc1)c1ccccc1` (configuration not stated) [Fluoxetine-nor] are within 1.5-fold of each other in LC retention time: 9.84 min for the first, 8.58 min for the second.

Going from `COc1ccc2cc(C(C)C(=O)O)ccc2c1` (configuration not stated) [Naproxen] to `COc1cnc(NS(=O)(=O)c2ccc(N)cc2)nc1` [Sulfameter (sulfumetin)], the LC retention time falls from 8.99 min to 4.18 min (2.2-fold).

`CN(C)CCCN1c2ccccc2Sc2ccc(Cl)cc21` [Chlorpromazine] and `O=C1CN=C(c2ccccc2)c2cc(Cl)ccc2N1` [Diazepam-Nor] are within 1.5-fold of each other in LC retention time: 8.89 min for the first, 9.23 min for the second.

`CC1(C(=O)Nc2ccc(O)c(Cl)c2Cl)CCCCC1` [Fenhexamide] and `CC1(C)CON(Cc2ccccc2Cl)C1=O` [Clomazone  (Command)] are within 1.5-fold of each other in LC retention time: 10.1 min for the first, 8.89 min for the second.

Going from `Cc1cccc2n[nH]nc12` [Benzotriazole -4-Me] to `c1ccc2sc(SN3CCOCC3)nc2c1` [2-Morpholinothiobenzothiazole], the LC retention time rises from 5.83 min to 9.85 min (1.7-fold).

`CSc1ccc(C(=O)c2[nH]c(=O)[nH]c2C)cc1` [Enoximon] and `O=C(c1ccccc1)c1ccc2n1CCC2C(=O)O` (configuration not stated) [Ketorolac] are within 1.5-fold of each other in LC retention time: 6.67 min for the first, 6.94 min for the second.

Compared with `CCCCCCCCCCN(C)C` [N,N-Dimethyldecylamine], `CCCCCCC(C)(C)c1cc(O)c2c(c1)OC(C)(C)C1CC=C(CO)CC21` (configuration not stated) [HU-210] is 1.6-fold higher in LC retention time: 8.59 min for the first, 13.5 min for the second.

`CCNC1C2CCC(C2)C1c1ccccc1` (configuration not stated) [Fencamfamine] and `CC1(C)SC2C(NC(=O)C(N)c3ccccc3)C(=O)N2C1C(=O)O` (configuration not stated) [Ampicillin] are within 1.5-fold of each other in LC retention time: 6.08 min for the first, 4.21 min for the second.

`O=C1CN=C(c2ccccc2Cl)c2cc([N+](=O)[O-])ccc2N1` [Clonazepam] and `CNCC(C)CN1c2ccccc2CCc2ccccc21` (configuration not stated) [Trimipramine-Nor] are within 1.5-fold of each other in LC retention time: 7.61 min for the first, 8.49 min for the second.

Going from `Cc1c(NC(C)C)c(=O)n(-c2ccccc2)n1C` [Ramifenazone] to `CCCN(CCC)C(=O)SCc1ccccc1` [Prosulfocarb], the LC retention time rises from 5.72 min to 11.9 min (2.1-fold).

First: CCC1OC(=O)C(C)C(OC2CC(C)(OC)C(O)C(C)O2)C(C)C(OC2OC(C)CC(NC)C2O)C(C)(OC)CC(C)C(=O)C(C)C(O)C1(C)O (configuration not stated) [Clarithromycin-N-desmethyl]
Second: CON=C1CC2(CC3CC(CC=C(C)CC(C)C=CC=C4COC5C(O)C(C)=CC(C(=O)O3)C45O)O2)OC(C(C)=CC(C)C)C1C (configuration not stated) [Moxidectin]
The LC retention time of the first is 1.5-fold lower: 9.16 min for the first, 13.8 min for the second.

Going from `c1cc2c(cc1CN1CCNCC1)OCO2` [Piperazine -1-Piperonyl] to `COc1cc(OC)nc(NC(=O)NS(=O)(=O)c2c(Cl)nc3ccccn23)n1` [Imazosulfuron], the LC retention time rises from 4.22 min to 8.78 min (2.1-fold).

For `CCC(C)n1c(=O)[nH]c(C)c(Br)c1=O` (configuration not stated) [Bromacil], the LC retention time was 7.07 min.
